From ChEMBL document CHEMBL1150270, “Effect of the major glycosides of Harpagophytum procumbens (Devil's Claw) on epidermal cyclooxygenase-2 (COX-2) in vitro” (2008)
Active and inactive are the calls of the source. No cut-off for these calls is given here.

Key:
Assay type in all cases: functional
Sus scrofa [1] = species: Sus scrofa; assay: Reduction of COX2 expression in pig skin at 500 uM by Western blotting
Sus scrofa [2] = species: Sus scrofa; assay: Inhibition of COX2 synthesis in pig skin
Sus scrofa [3] = species: Sus scrofa; assay: Suppression of COX2 expression in pig skin by immunostaining after 6 hrs
Sus scrofa [4] = species: Sus scrofa; assay: Increase in COX2 expression in pig skin at 500 uM by Western blotting

Row | Structure (SMILES) | Activity (Sus scrofa [1]) | inhibition (INH) (Sus scrofa [2]) [%] | Activity (Sus scrofa [3]) | Activity (Sus scrofa [4])
1 | C[C@]1(OC(=O)/C=C/c2ccc(O)cc2)C[C@@H](O)[C@]2(O)C=CO[C@@H](O[C@@H]3O[C@H](CO)[C@@H](O)[C@H](O)[C@H]3O)[C@@H]21 | Active | <50 | Active | –
2 | C[C@]1(O)C[C@@H](O)[C@]2(O)C=CO[C@@H](O[C@H]3O[C@H](CO)[C@@H](O)[C@H](O)[C@H]3O)[C@@H]21 | – | – | – | Active
3 | C[C@@H]1O[C@@H](O[C@@H]2[C@@H](O)[C@H](OCCc3ccc(O)c(O)c3)O[C@H](CO)[C@H]2OC(=O)/C=C/c2ccc(O)c(O)c2)[C@H](O)[C@H](O)[C@H]1O [ACETOSIDE] | – | <50 | Active | –
4 | C[C@]1(OC(=O)/C=C/c2ccccc2)C[C@@H](O)[C@]2(O)C=CO[C@@H](O[C@@H]3O[C@H](CO)[C@@H](O)[C@H](O)[C@H]3O)[C@@H]21 [HARPAGOSIDE] | – | <50 | Active | –
5 | CC(C)Cc1ccc(C(C)C(=O)O)cc1 (stereo not given) [IBUPROFEN] | – | <50 | Active | –
